# Key:
# Escherichia coli [1] = experiment: microbe, parasite or virus in culture; conditions: DH5[alpha]
# Description: Antimicrobial activity against multidrug resistant Escherichia coli DH5[alpha] harboring pACM204 plasmid by broth dilution method
# Klebsiella pneumoniae [2] = experiment: Antimicrobial activity against multidrug resistant Klebsiella pneumoniae isolate 5 by broth dilution method; assay type: functional
# Klebsiella aerogenes [3] = experiment: Antimicrobial activity against multidrug resistant Enterobacter aerogenes isolate 3 by broth dilution method; assay type: functional
# Klebsiella pneumoniae [4] = experiment: Antimicrobial activity against multidrug resistant Klebsiella pneumoniae isolate 3 by broth dilution method; assay type: functional
# Klebsiella pneumoniae [5] = experiment: Antimicrobial activity against multidrug resistant Klebsiella pneumoniae isolate 11 by broth dilution method; assay type: functional
# Klebsiella pneumoniae [6] = experiment: Antimicrobial activity against multidrug resistant Klebsiella pneumoniae isolate 8 by broth dilution method; assay type: functional
# Klebsiella aerogenes [7] = experiment: Antimicrobial activity against multidrug resistant Enterobacter aerogenes isolate 25 by broth dilution method; assay type: functional
# Klebsiella aerogenes [8] = experiment: Antimicrobial activity against multidrug resistant Enterobacter aerogenes isolate 10 by broth dilution method; assay type: functional
# Klebsiella aerogenes [9] = experiment: Antimicrobial activity against multidrug resistant Enterobacter aerogenes isolate 8 by broth dilution method; assay type: functional
# Klebsiella pneumoniae [10] = experiment: Antimicrobial activity against multidrug resistant Klebsiella pneumoniae isolate 13 by broth dilution method; assay type: functional
# Klebsiella pneumoniae [11] = experiment: Antimicrobial activity against multidrug resistant Klebsiella pneumoniae isolate 12 by broth dilution method; assay type: functional
# Klebsiella pneumoniae [12] = experiment: Antimicrobial activity against multidrug resistant Klebsiella pneumoniae isolate 9 by broth dilution method; assay type: functional
# Klebsiella pneumoniae [13] = experiment: Antimicrobial activity against multidrug resistant Klebsiella pneumoniae isolate 14 by broth dilution method; assay type: functional
# Klebsiella aerogenes [14] = experiment: Antimicrobial activity against multidrug resistant Enterobacter aerogenes ATCC 15038 by broth dilution method; assay type: functional
# Klebsiella aerogenes [15] = experiment: Antimicrobial activity against multidrug resistant Enterobacter aerogenes ATCC 15038 harboring pACM204 plasmid by broth dilution method; assay type: functional
# Klebsiella pneumoniae [16] = experiment: Antimicrobial activity against multidrug resistant Klebsiella pneumoniae isolate 4 by broth dilution method; assay type: functional
# Klebsiella aerogenes [17] = experiment: Antimicrobial activity against multidrug resistant Enterobacter aerogenes isolate 9 by broth dilution method; assay type: functional
# Klebsiella pneumoniae [18] = experiment: Antimicrobial activity against multidrug resistant Klebsiella pneumoniae isolate 16 by broth dilution method; assay type: functional
# Klebsiella aerogenes [19] = experiment: Antimicrobial activity against multidrug resistant Enterobacter aerogenes isolate 21 by broth dilution method; assay type: functional
# Klebsiella aerogenes [20] = experiment: Antimicrobial activity against multidrug resistant Enterobacter aerogenes isolate 7 by broth dilution method; assay type: functional
# Klebsiella aerogenes [21] = experiment: Antimicrobial activity against multidrug resistant Enterobacter aerogenes ATCC 15038 harboring pDrive plasmid by broth dilution method; assay type: functional
# Klebsiella pneumoniae [22] = experiment: Antimicrobial activity against multidrug resistant Klebsiella pneumoniae isolate 7 by broth dilution method; assay type: functional
# Klebsiella aerogenes [23] = experiment: Antimicrobial activity against multidrug resistant Enterobacter aerogenes isolate 15 by broth dilution method; assay type: functional
# Klebsiella aerogenes [24] = experiment: Antimicrobial activity against multidrug resistant Enterobacter aerogenes isolate 4 by broth dilution method; assay type: functional
# Escherichia coli [25] = experiment: microbe, parasite or virus in culture; conditions: ATCC 35218
# Description: Antimicrobial activity against multidrug resistant Escherichia coli ATCC 35218 harboring pDrive plasmid expressing ampC gene by broth dilution method
# Klebsiella pneumoniae [26] = experiment: Antimicrobial activity against multidrug resistant Klebsiella pneumoniae isolate 1 by broth dilution method; assay type: functional
# Klebsiella pneumoniae [27] = experiment: Antimicrobial activity against multidrug resistant Klebsiella pneumoniae isolate 2 by broth dilution method; assay type: functional
# Klebsiella aerogenes [28] = experiment: Antimicrobial activity against multidrug resistant Enterobacter aerogenes isolate 19 by broth dilution method; assay type: functional
# Klebsiella aerogenes [29] = experiment: Antimicrobial activity against multidrug resistant Enterobacter aerogenes isolate 6 by broth dilution method; assay type: functional
# Klebsiella aerogenes [30] = experiment: Antimicrobial activity against multidrug resistant Enterobacter aerogenes isolate 20 by broth dilution method; assay type: functional
# Escherichia coli [31] = experiment: microbe, parasite or virus in culture; conditions: DH5[alpha]; remark: listed apart in the source
# Description: Antimicrobial activity against multidrug resistant Escherichia coli DH5[alpha] harboring pDrive plasmid by broth dilution method
# Klebsiella aerogenes [32] = experiment: Antimicrobial activity against multidrug resistant Enterobacter aerogenes isolate 17 by broth dilution method; assay type: functional
# Klebsiella aerogenes [33] = experiment: Antimicrobial activity against multidrug resistant Enterobacter aerogenes isolate 16 by broth dilution method; assay type: functional
# Klebsiella aerogenes [34] = experiment: Antimicrobial activity against multidrug resistant Enterobacter aerogenes isolate 23 by broth dilution method; assay type: functional
# Klebsiella aerogenes [35] = experiment: Antimicrobial activity against multidrug resistant Enterobacter aerogenes isolate 1 by broth dilution method; assay type: functional
# Klebsiella aerogenes [36] = experiment: Antimicrobial activity against multidrug resistant Enterobacter aerogenes isolate 18 by broth dilution method; assay type: functional
# Klebsiella aerogenes [37] = experiment: Antimicrobial activity against multidrug resistant Enterobacter aerogenes isolate 13 by broth dilution method; assay type: functional
# Escherichia coli [38] = experiment: Antimicrobial activity against multidrug resistant Escherichia coli ATCC 35218 by broth dilution method; assay type: functional
# Escherichia coli [39] = experiment: microbe, parasite or virus in culture; conditions: DH5[alpha]; remark: listed apart in the source
# Description: Antimicrobial activity against multidrug resistant Escherichia coli DH5[alpha] harboring pDrive plasmid expressing ampC gene by broth dilution method
# Klebsiella pneumoniae [40] = experiment: Antimicrobial activity against multidrug resistant Klebsiella pneumoniae isolate 10 by broth dilution method; assay type: functional
# Klebsiella aerogenes [41] = experiment: Antimicrobial activity against multidrug resistant Enterobacter aerogenes isolate 24 by broth dilution method; assay type: functional
# Klebsiella aerogenes [42] = experiment: Antimicrobial activity against multidrug resistant Enterobacter aerogenes isolate 11 by broth dilution method; assay type: functional
# Klebsiella aerogenes [43] = experiment: Antimicrobial activity against multidrug resistant Enterobacter aerogenes isolate 22 by broth dilution method; assay type: functional
# Klebsiella aerogenes [44] = experiment: Antimicrobial activity against multidrug resistant Enterobacter aerogenes isolate 14 by broth dilution method; assay type: functional
# Escherichia coli [45] = experiment: microbe, parasite or virus in culture; conditions: DH5[alpha]; remark: listed apart in the source
# Description: Antimicrobial activity against multidrug resistant Escherichia coli DH5[alpha] by broth dilution method
# Klebsiella aerogenes [46] = experiment: Antimicrobial activity against multidrug resistant Enterobacter aerogenes ATCC 15038 harboring pDrive plasmid expressing ampC gene by broth dilution method; assay type: functional
# Klebsiella aerogenes [47] = experiment: Antimicrobial activity against multidrug resistant Enterobacter aerogenes isolate 27 by broth dilution method; assay type: functional
# Klebsiella aerogenes [48] = experiment: Antimicrobial activity against multidrug resistant Enterobacter aerogenes isolate 5 by broth dilution method; assay type: functional
# Klebsiella aerogenes [49] = experiment: Antimicrobial activity against multidrug resistant Enterobacter aerogenes isolate 12 by broth dilution method; assay type: functional
# Klebsiella aerogenes [50] = experiment: Antimicrobial activity against multidrug resistant Enterobacter aerogenes isolate 26 by broth dilution method; assay type: functional
# Klebsiella pneumoniae [51] = experiment: Antimicrobial activity against multidrug resistant Klebsiella pneumoniae ATCC 11296 by broth dilution method; assay type: functional
# Klebsiella pneumoniae [52] = experiment: Antimicrobial activity against multidrug resistant Klebsiella pneumoniae isolate 6 by broth dilution method; assay type: functional
# Escherichia coli [53] = experiment: microbe, parasite or virus in culture; conditions: ATCC 35218; remark: listed apart in the source
# Description: Antimicrobial activity against multidrug resistant Escherichia coli ATCC 35218 harboring pDrive plasmid by broth dilution method
# Klebsiella pneumoniae [54] = experiment: Antimicrobial activity against multidrug resistant Klebsiella pneumoniae isolate 15 by broth dilution method; assay type: functional
# Klebsiella aerogenes [55] = experiment: Antimicrobial activity against multidrug resistant Enterobacter aerogenes isolate 2 by broth dilution method; assay type: functional
structure (smiles),measurement,setting,value
CC(C)(O/N=C(\C(=O)N[C@@H]1C(=O)N2C(C(=O)[O-])=C(C[n+]3ccccc3)CS[C@H]12)c1csc(N)n1)C(=O)O [CEFTAZIDIME],MIC,Escherichia coli [1],32 µg/mL
same,MIC,Klebsiella pneumoniae [2],> 2050 µg/mL
same,MIC,Klebsiella aerogenes [3],> 2050 µg/mL
same,MIC,Klebsiella pneumoniae [4],> 2050 µg/mL
same,MIC,Klebsiella pneumoniae [5],> 2050 µg/mL
same,MIC,Klebsiella pneumoniae [6],> 2050 µg/mL
same,MIC,Klebsiella aerogenes [7],> 2050 µg/mL
same,MIC,Klebsiella aerogenes [8],> 2050 µg/mL
same,MIC,Klebsiella aerogenes [9],> 2050 µg/mL
same,MIC,Klebsiella pneumoniae [10],16 µg/mL
same,MIC,Klebsiella pneumoniae [11],16 µg/mL
same,MIC,Klebsiella pneumoniae [12],> 2050 µg/mL
same,MIC,Klebsiella pneumoniae [13],16 µg/mL
same,MIC,Klebsiella aerogenes [14],0.25 µg/mL
same,MIC,Klebsiella aerogenes [15],64 µg/mL
same,MIC,Klebsiella pneumoniae [16],> 2050 µg/mL
same,MIC,Klebsiella aerogenes [17],> 2050 µg/mL
same,MIC,Klebsiella pneumoniae [18],2050 µg/mL
same,MIC,Klebsiella aerogenes [19],> 2050 µg/mL
same,MIC,Klebsiella aerogenes [20],> 2050 µg/mL
same,MIC,Klebsiella aerogenes [21],0.5 µg/mL
same,MIC,Klebsiella pneumoniae [22],> 2050 µg/mL
same,MIC,Klebsiella aerogenes [23],> 2050 µg/mL
same,MIC,Klebsiella aerogenes [24],> 2050 µg/mL
same,MIC,Escherichia coli [25],16 µg/mL
same,MIC,Klebsiella pneumoniae [26],2050 µg/mL
same,MIC,Klebsiella pneumoniae [27],2050 µg/mL
same,MIC,Klebsiella aerogenes [28],> 2050 µg/mL
same,MIC,Klebsiella aerogenes [29],256 µg/mL
same,MIC,Klebsiella aerogenes [30],> 2050 µg/mL
same,MIC,Escherichia coli [31],2 µg/mL
same,MIC,Klebsiella aerogenes [32],> 2050 µg/mL
same,MIC,Klebsiella aerogenes [33],> 2050 µg/mL
same,MIC,Klebsiella aerogenes [34],2050 µg/mL
same,MIC,Klebsiella aerogenes [35],> 2050 µg/mL
same,MIC,Klebsiella aerogenes [36],1020 µg/mL
same,MIC,Klebsiella aerogenes [37],> 2050 µg/mL
same,MIC,Escherichia coli [38],0.125 µg/mL
same,MIC,Escherichia coli [39],32 µg/mL
same,MIC,Klebsiella pneumoniae [40],> 2050 µg/mL
same,MIC,Klebsiella aerogenes [41],> 2050 µg/mL
same,MIC,Klebsiella aerogenes [42],> 2050 µg/mL
same,MIC,Klebsiella aerogenes [43],> 2050 µg/mL
same,MIC,Klebsiella aerogenes [44],> 2050 µg/mL
same,MIC,Escherichia coli [45],2 µg/mL
same,MIC,Klebsiella aerogenes [46],64 µg/mL
same,MIC,Klebsiella aerogenes [47],> 2050 µg/mL
same,MIC,Klebsiella aerogenes [48],> 2050 µg/mL
same,MIC,Klebsiella aerogenes [49],> 2050 µg/mL
same,MIC,Klebsiella aerogenes [50],1020 µg/mL
same,MIC,Klebsiella pneumoniae [51],0.5 µg/mL
same,MIC,Klebsiella pneumoniae [52],32 µg/mL
same,MIC,Escherichia coli [53],0.5 µg/mL
same,MIC,Klebsiella pneumoniae [54],> 2050 µg/mL
same,MIC,Klebsiella aerogenes [55],> 2050 µg/mL

# Source: ChEMBL document CHEMBL1649134, “Occurrence of efflux mechanism and cephalosporinase variant in a population of Enterobacter aerogenes and Klebsiella pneumoniae isolates producing extended-spectrum beta-lactamases” (2009)
